Measurements from US6992169B2, “Carrier based drug delivery system” (Cyclacel Limited, priority 1998, dated 2006).

Assay: Carcinoma cell line panel, SRB-assay
Method: After incubation for 96 h, cytotoxicity was assessed using a standard SRB-assay.

With `CC[C@H](C)[C@H](NC(=O)[C@H](CCCCN)NC(=O)[C@@H](NC(=O)[C@H](CCC(N)=O)NC(=O)[C@H](CCCNC(=N)N)NC(=O)[C@@H](N)CSC1CC(=O)N(CCC(=O)O[C@H]2C[C@H]3OC[C@@]3(OC(C)=O)[C@H]3[C@H](OC(=O)c4ccccc4)[C@]4(O)C[C@H](OC(=O)[C@H](O)[C@@H](NC(=O)c5ccccc5)c5ccccc5)C(C)=C([C@@H](OC(C)=O)C(=O)[C@]23C)C4(C)C)C1=O)[C@@H](C)CC)C(=O)N[C@@H](Cc1c[nH]c2ccccc12)C(=O)N[C@@H](Cc1ccccc1)C(=O)N[C@@H](CCC(N)=O)C(=O)N[C@@H](CC(N)=O)C(=O)N[C@@H](CCCNC(=N)N)C(=O)N[C@@H](CCCNC(=N)N)C(=O)N[C@@H](CCSC)C(=O)N[C@@H](CCCCN)C(=O)N[C@@H](Cc1c[nH]c2ccccc12)C(=O)N[C@@H](CCCCN)C(=O)N[C@@H](CCCCN)C(=O)O` (stereo partly shown) [7-Paclitaxel Vector Conjugate] the IC50 at 96 h was > 25 µM.
